Tests used:
Penicillium spp. = assay: Thermal fogging with eugenol of empty grain storage cells; Airtest trapping of Penicillium colonies on Petri dishes; conditions: for Penicillium contamination (number colonies/Petri dish) After treatment: Airtest 100 l, 10 days after treatment
Experimental: (§1) Six cells (noted ‘20’, ‘L’, ‘12’, ‘F’, ‘8’ and ‘I’) were studied. These are concrete cells with a conical bottom (bottom for completely emptying the cell and eliminating more readily the debris and dust before ensilaging the next harvest). The cells identified by a number have a capacity of 350 t, those identified by a letter have a capacity of 50 t. The level of contamination of the six cells was evaluated by trapping the contaminated spores or particles using an Airtest introduced into the cell via an access hatch located at the base of the cell.
(§2) The Petri dishes 90 mm in diameter, placed in the Airtest and constituting the trap, contained a Malt Agar+Triton medium; the addition of triton modifies the development of the fungal colonies, which remain compact and are easy to count. The volume of air passing through the Airtest was set at 100 I, except for one cell in which we tested 4 different volumes of air (10 l, 20 l, 40 l, 100 l). For each mode, three repetitions (3Petri dishes) were carried out.
(§3) Two types of trapping were carried out; atmospheric trapping and trapping on the […]. In fact, these walls have rough patches and can retain mould spores or infected particles. The Airtest was placed approximately 5 mm from the wall.
(§4) […]
(§5) The eugenol thermal fogging treatment was carried out on a platform on which the thermal fogging device was installed.
(§6) 4 l and 20 l of eugenol, respectively, were subjected to thermal fogging at 230° C. (for approximately ¾ h) in cell L (≈50 m^3) and in cell 12 (≈350 m^3).

Aspergillus spp. = assay: Thermal fogging with eugenol of empty grain storage cells; Airtest trapping of Aspergillus colonies on Petri dishes; conditions: for Aspergillus contamination (number colonies/Petri dish) After treatment: Airtest 100 l, 10 days after treatment
Experimental: as §1, §2, §3, §4, §5, §6

[1] = thermal fogging of eugenol in the cells, atmospheric and wall contamination

## C=CCc1ccc(O)c(OC)c1 [eugenol]
Penicillium spp.; cell 12 (wheat, ≈350 m^3), 20 l eugenol thermal fogging at 230° C., atmosphere trapping, before treatment 1240
  Penicillium contamination (number colonies/Petri dish) After treatment: 400 number colonies/Petri dish
Penicillium spp.; cell 12 (wheat, ≈350 m^3), 20 l eugenol thermal fogging at 230° C., wall trapping, before treatment 1860
  Penicillium contamination (number colonies/Petri dish) After treatment: 207 number colonies/Petri dish
Penicillium spp.; cell L (wheat, ≈50 m^3), 4 l eugenol thermal fogging at 230° C., atmosphere trapping, before treatment 2650
  Penicillium contamination (number colonies/Petri dish) After treatment: 106 number colonies/Petri dish
Penicillium spp.; cell L (wheat, ≈50 m^3), 4 l eugenol thermal fogging at 230° C., wall trapping, before treatment 7500
  Penicillium contamination (number colonies/Petri dish) After treatment: 85 number colonies/Petri dish
Penicillium spp.; cells L and 12, thermal fogging with eugenol at 230° C., atmospheric and wall contamination
  level of Penicillium spp. contamination after treatment (in words): clear decrease
Penicillium spp.; [1]
  effectiveness against Penicillium spp. present in the grain storage cells (in words): very effective
Aspergillus spp.; cell 12 (wheat, ≈350 m^3), 20 l eugenol thermal fogging at 230° C., atmosphere trapping, before treatment 77
  Aspergillus contamination (number colonies/Petri dish) After treatment: 0 number colonies/Petri dish
Aspergillus spp.; cell 12 (wheat, ≈350 m^3), 20 l eugenol thermal fogging at 230° C., wall trapping, before treatment 85
  Aspergillus contamination (number colonies/Petri dish) After treatment: 0 number colonies/Petri dish
Aspergillus spp.; cell 12, 20 l eugenol thermal fogging at 230° C.
  Aspergillus spp. contamination after treatment (in words): completely controlled
Aspergillus spp.; cell L (wheat, ≈50 m^3), 4 l eugenol thermal fogging at 230° C., atmosphere trapping, before treatment 0
  Aspergillus contamination (number colonies/Petri dish) After treatment: 0 number colonies/Petri dish
Aspergillus spp.; cell L (wheat, ≈50 m^3), 4 l eugenol thermal fogging at 230° C., wall trapping, before treatment 0
  Aspergillus contamination (number colonies/Petri dish) After treatment: 0 number colonies/Petri dish
Aspergillus spp.; [1]
  effectiveness against Aspergillus spp. present in the grain storage cells (in words): very effective

From US20080175926A1, “Process for treating storage reservoirs contaminated with mycotoxins” (priority 2006, published 2008)
